Literature values in PMC4844938 (Molecules and Cells, 2016).

Tested on: RANKL
Settings: ref Ta et al., 2010

Kd (read-out: Kd for RANKL, reported in previous work): 17.3 µM
Substance: 1-YC WNSDCECCYRR-13 (bicyclic or more) [L3-3]
affinity for RANKL relative to OP3-4 (previous work): higher affinity for RANKL as compared to OP3-4
